Laboratory results as given in article PMC3769273, “The Relationship between Functional Inhibition and Binding for KCa2 Channel Blockers” (PLoS ONE, 2013).

What was measured:
KCa2.3 [1] = conditions: KCa2.3, CHO cells, ref Hosseini et al. 2000; read-out: IC50 for inhibition of KCa2 current; cited from earlier work
KCa2.2 [2] = target: T1, KCa2.2 (Rattus norvegicus, UniProt P70604); test: cell-based; assay type: cell-based; conditions: for IC50: KCa2.2, standard physiological solution, measured at −20 mV, read-out: IC50 for inhibition of KCa2 current; for common Hill slope of concentration-inhibition curves: KCa2.2 current, standard solution
T1 construct: expressed in transfected cells; host or cells: HEK 293 cells, transient transfection (Lipofectamine 2000) with channel plasmid plus a separate GFP plasmid; Some experiments used stably transfected cells
T1 sequence (P70604 whole entry): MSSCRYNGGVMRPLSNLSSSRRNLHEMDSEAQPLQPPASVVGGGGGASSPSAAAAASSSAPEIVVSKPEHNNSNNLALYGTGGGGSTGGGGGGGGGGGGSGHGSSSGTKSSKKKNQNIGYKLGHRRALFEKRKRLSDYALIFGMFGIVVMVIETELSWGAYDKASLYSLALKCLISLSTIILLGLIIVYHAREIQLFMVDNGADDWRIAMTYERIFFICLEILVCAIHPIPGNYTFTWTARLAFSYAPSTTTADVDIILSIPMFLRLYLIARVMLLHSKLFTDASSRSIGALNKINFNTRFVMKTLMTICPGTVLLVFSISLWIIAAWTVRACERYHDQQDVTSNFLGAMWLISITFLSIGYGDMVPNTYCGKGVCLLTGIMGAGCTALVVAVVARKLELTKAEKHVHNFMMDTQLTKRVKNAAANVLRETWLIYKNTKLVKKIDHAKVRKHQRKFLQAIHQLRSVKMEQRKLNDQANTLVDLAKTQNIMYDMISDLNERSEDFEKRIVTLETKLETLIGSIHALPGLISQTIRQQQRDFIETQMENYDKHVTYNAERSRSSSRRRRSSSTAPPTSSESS
Method: For electrophysiology, wild type and stably transfected HEK cells were plated in 35 mm dishes. In most experiments KCa2.2 was transiently expressed in HEK 293 cells. Transient transfection was achieved using Lipofectamine 2000 (Invitrogen) according to the manufacturer's instructions. Briefly, 2 µg channel plasmid and 1 µg QBI (QBiogene), which expresses GFP, was mixed with 3 µg Lipofectamine 2000 and added to each 35 mm dish. GFP expressing cells were identified by epi-fluorescence. Conventional whole cell recordings were made using an EPC9 amplifier controlled by Pulse software (Heka). Data were filtered at 1 kHz and acquired at 5 kHz. Borosilicate glass patch pipettes (2–5 MΩ) were coated with Sylgard resin, fire polished and filled with a solution containing (in mM): KCl 140, HEPES 10, K2HEDTA 5, and either 1.2 CaCl2 (free Ca^2+ = 1 µM) or no added Ca^2+ (free Ca^2+ <10 nM). The pH was adjusted to 7.2 with 1 M KOH. Free Ca^2+ concentrations were calculated using the REACT program (G.L. Smith, University of Glasgow) and stability constants for HEDTA published in Martell and Smith. Except where stated the extracellular solution was the same as the incubation medium used in binding experiments. As with binding studies all experiments were performed at room temperature (20–25°C).
Routinely, cells were held at −80 mV and 100 ms test pulses applied to potentials between −120 mV and 40 mV. […] In order to avoid contamination of KCa2 current by the endogenous currents, inhibition by blocking agents was measured at −20 mV.
Concentration-inhibition curves were fitted by a variant of the Hill equation with the form: [drawing 4] where y is the current in the presence of blocker at concentration [B] expressed as a percentage of control and n is the Hill coefficient.

KCa2.2 [3] = target: T1, KCa2.2; test: Competition binding: inhibition of 125I-apamin binding to HEK 293 cells expressing KCa2.2; conditions: for Ki: KCa2.2, Cheng-Prussoff correction, read-out: K i for displacement of mono-iodoapamin
Method: (§1) Radio-ligand binding studies were conducted using HEK 293 cell lines stably expressing KCa2.2 or KCa2.3. The cells were cultured in DMEM supplemented with 10% foetal calf serum, 2 mM L-glutamine, penicillin (200 units ml^–1) and streptomycin (100 µg ml^–1) in T500 flasks (Nunc). When confluent, these cells were harvested mechanically (to avoid the use of trypsin) into Ca^2+/Mg^2+ free HBSS. The cells were centrifuged at 50 g for 2 min, resuspended in DMEM at a density of approximately 2.5×10^6 cells ml^–1 and stored at 4°C until used (<2 hr). Cell density was estimated using a haemocytometer.
(§2) Routinely, incubations were performed in a total volume of 250 µl comprising 100 µl cell suspension (∼250000 cells), 100 µl ^125I-apamin and 50 µl displacing agent or incubation medium. The incubation medium contained (in mM) NaCl 140, KCl 5, MgCl2 1, CaCl2 2, glucose 10 and HEPES 10. The pH was adjusted to 7.4 with 1 M NaOH. Non-specific binding was estimated in the presence of 100 nM UCL 1848, a potent KCa2 channel blocker which causes maximal inhibition at this concentration (see Hosseini et al., Benton et al.[13]). Measurements for each test were performed in triplicate. Separation of cells from unbound ligand was achieved by rapid filtration through Whatman GF/B filters pre-treated with 0.3% v/v polyethyleneimine using a Skatron AS harvester. The quantity of labelled apamin bound was measured using a calibrated γ counter (LKB 1275) and expressed as fmol label/10^6 cells. All binding experiments were conducted at room temperature (20–25°C).
(§3) The ability of test compounds to inhibit ^125I-apamin binding was measured in the presence of 20–60 pM ^125I-apamin with or without the test compound. In every experiment each concentration of inhibitor was tested in triplicate and the data presented represents the mean of at least two separate experiments. Inhibition curves were fitted by a variant of Hill-Langmuir equation: [drawing 3] where B I is the specific binding of label in the presence of inhibitor as a percentage of the binding in its absence. Estimates of K i were obtained using the Cheng-Prussoff correction taking estimates of K L from the saturation binding studies.

KCa2.3 [4] = target: T2, KCa2.3 (Rattus norvegicus, UniProt P70605); test: Competition binding: inhibition of 125I-apamin binding to HEK 293 cells expressing KCa2.3; conditions: for Ki: KCa2.3, Cheng-Prussoff correction, read-out: K i for displacement of mono-iodoapamin
T2 construct: expressed in transfected cells; host or cells: HEK 293 cell line stably expressing KCa2.3, made in house by zeocin selection
T2 sequence (P70605 whole entry): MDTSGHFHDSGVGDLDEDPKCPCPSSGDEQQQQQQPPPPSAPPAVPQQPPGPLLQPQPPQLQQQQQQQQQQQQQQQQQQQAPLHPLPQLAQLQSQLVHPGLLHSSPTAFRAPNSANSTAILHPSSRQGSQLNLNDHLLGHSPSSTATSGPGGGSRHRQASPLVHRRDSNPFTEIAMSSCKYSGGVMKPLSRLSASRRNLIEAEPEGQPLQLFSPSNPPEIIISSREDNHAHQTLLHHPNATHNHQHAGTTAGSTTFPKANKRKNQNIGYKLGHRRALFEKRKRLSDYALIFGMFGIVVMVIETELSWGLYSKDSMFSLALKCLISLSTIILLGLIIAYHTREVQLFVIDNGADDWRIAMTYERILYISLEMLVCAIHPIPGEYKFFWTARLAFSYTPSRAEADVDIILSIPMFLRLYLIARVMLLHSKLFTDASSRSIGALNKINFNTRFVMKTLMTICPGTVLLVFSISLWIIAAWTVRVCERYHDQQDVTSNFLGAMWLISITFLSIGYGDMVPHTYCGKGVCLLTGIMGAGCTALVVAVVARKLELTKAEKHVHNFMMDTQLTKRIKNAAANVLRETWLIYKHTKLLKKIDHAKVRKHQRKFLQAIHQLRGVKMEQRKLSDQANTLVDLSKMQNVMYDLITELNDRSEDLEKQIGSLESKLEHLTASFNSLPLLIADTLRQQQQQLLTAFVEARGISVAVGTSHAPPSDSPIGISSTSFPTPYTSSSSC
Method: as §1, §2, §3

Row | Compound | IC50 (KCa2.3 [1]) [nM] | IC50 (KCa2.2 [2]) [nM] | common Hill slope of concentration-inhibition curves (KCa2.2 [2]) | inhibition of total 125I-apamin binding (KCa2.2 [3]; 100 nM UCL 1848, 30 pM 125I-apamin, KCa2.2 expressing HEK 293 cells) | Ki (KCa2.2 [3]) [nM] | inhibition of total 125I-apamin binding (KCa2.3 [4]; 100 nM UCL 1848, 30 pM 125I-apamin, KCa2.3 expressing HEK 293 cells) | Ki (KCa2.3 [4]) [nM]
1 | 8,14-diaza-1,7(1, 4)-diquinolinacyclotetradecaphane [UCL 1848] | 2.1 ± 0.3 | 0.125 ± 0.0025 | 0.7±0.04 | almost completely inhibited | 0.095 ± 0.0017 | almost completely inhibited | 0.652 ± 0.18
2 | Cc1cc(N)c2ccccc2[n+]1CCCCCCCCCC[n+]1c(C)cc(N)c2ccccc21 [Dequalinium, dequalinium] | 920 ± 140 | 420 ± 99 | 0.7±0.04 |  | 977 ± 165 |  | 865 ± 160
3 | CC[N+](CC)(CC)CCOc1cccc(OCC[N+](CC)(CC)CC)c1OCC[N+](CC)(CC)CC [Gallamine, gallamine] | 98000 ± 700 | 7000 ± 800 | 0.7±0.04 |  | 26000 ± 5000 |  | 71000 ± 8000
4 | c1cc2cc(c1)C[n+]1ccc(c3ccccc31)NCc1ccc(cc1)CNc1cc[n+](c3ccccc13)C2 [UCL1684, 6,10–diaza-3(1,3),8(1,4)-dibenzena-1,5(1,4)- diquinolinacyclodecaphane] | 5.8 ± 0.3 | 0.53 ± 0.008 | 0.7±0.04 |  | 1.01 ± 0.022 |  | 7.7 ± 1.6
